Reference: patent publication US6903130B1, “Pyrrolidineacetamide derivative alone or in combination for treatment of cns disorders” (UCB S.A., priority 1999, dated 2005)

Columns and labels:
[1] = test system: rats in which hyperactivity has been induced using the DEX-CDP mixture; assay: Y maze test, hyperactivity induced by DEX-CDP mixture (Example 1); type: in vivo, rat; conditions: for Number of arms visited: median; for Effect on hyperactivity induced by DEX-CDP (in words): hyperactive rats; for Effect on hyperactivity induced by DEX-CDP (in words) / Effect of the compound per se on activity of non-hyperactive control (in words): i.p.; for Effect of the compound per se on activity of non-hyperactive control (in words): non-hyperactive control rats
From the text: An increase in motor activity is a frequent symptom of manic disorders and as a consequence, it is often used as a model of mania in laboratory animals. […] Further, not all activity tests are suitable for observing reproducible hyperactivity.
Hyperactivity induced in rodents tested in a symmetrical v maze by a mixture of dexamphetamine and chlordiazepoxide (DEX-CDP) has been used by a number of researchers to study the effect of lithium (Cox C. et al., “Lithium attenuates “manic” activity in rats” Nature (1971), vol. 232 p 336-338—Vale A. L. and Ratcliffe F., “Effect of lithium administration on rat brain 5-hydroxyindole levels in a possible animal model of mania” Psychopharamacol. (1987), vol.91 p 352-355), or more recently the effect of the antiepiteptic “Valproate” (Cao B. J. and Peng N. A., “Magnesium valproate attenuates hyperactivity induced by dexamphetamine-chlordiazepoxide mixture in rodents” Eur. J. Pharmacol. (1993), vol. 237, p 177-181).
Lithium and valproate were also tested and used as reference compounds.
The animals used were male Sprague-Dawley rats (origin: OFA, IFFA CREDO, Belgium) weighing between 210 and 290 grams. They were placed in stainless steel cages in groups of 8. The day prior to the experiment, they were placed in macrolon cages (4 animals per cage: 38×27×15 centimeters (cm)) with the floor covered with sawdust. The cages were placed in an animal holding chamber provided with air conditioning, illuminated from 0600 hrs to 1800 hrs. Food and water were available “ad libitum”.
The apparatus used was a Y maze (each arm being 40 cm long and 15 cm wide with 35 cm walls) constructed from grey Plexiglass, located in a faintly illuminated room (Less than 5 Lux at ground level) and used to measure the rats' activity. The activity was estimated by recording the number of entries into the arms of the maze over a five-minute period. A video camera was positioned at a height of one meter above the apparatus and connected to a monitor located in an adjacent room in which an experimenter counted the number of entries into the arms.
The injection of different compounds into the rats was performed under the following conditions. 12.5 mg/kg of chlordiazepoxide and 1.18 mg/kg of D-amphetamine sulfate were dissolved in a saline solution (0.9%) and administered simultaneously by subcutaneous injection 35 minutes before the test in a volume of 1 ml/kg. 17 and 54 mg/kg of levetiracetam were dissolved in a saline aqueous solution (0.9%) and injected intraperitoneally 30 minutes before the test (table 4). 50, 100 and 200 mg/kg of sodium valproate were dissolved in an aqueous saline solution (0.9%) and injected intraperitoneally 15 minutes before the test (table 2). 2 and 4 milliequivalents (meq) of […] of lithium chloride were dissolved in a saline solution (0.9%) and injected intraperitoneally 215 minutes before the test (table 1). The test drugs were injected in a volume of 5 ml/kg.
The effects of the different drugs were studied separately. In each experiment, the animals were placed in different groups ([…]) in a random fashion. During the test, each rat was placed in the center of the apparatus and the number of visits into the arms was recorded as an activity index.
For the results to be properly statistically analyzed, they were expressed as median with the first and third quartile. General comparisons of the statistics were carried out using a Kruskal-Wallis test for the controls and the effect of the compound per se. This test was also used to compare the effect of the (DEX-CDP) mixture, and the effect of the compounds against the hyperactivity induced by the (DEX-CDP) mixture.

[2] = test system: rats with hyperactivity induced by a mixture of dexamphetamine-chlordiazepoxide; assay: Y-maze test, DEX-CDP hyperactivity, levetiracetam and valproate alone or combined (Example 6); type: in vivo, rat; conditions: median (Q1-Q3)
From the text: The purpose of the present experiment was to study the effects of levetiracetam administered alone or in combination with valproate on the hyperactivity induced in rats by a mixture of dexamphetamine-chlordiazepoxide (DEX-CDP) evaluated in a Y-shaped maze apparatus, a test recognized as a model for mania. Increased motor activity is a frequent symptom of manic disorders and, therefore, is often used as a model of mania in laboratory animals. Lithium, a medicine approved by the FDA in the prophylaxis and the treatment of bipolar disorders and mania, and valproate, indicated for the treatment of manic episodes associated with bipolar disorders, have been shown active in this model of mania (Vale A. L. & Ratcliffe F., Psychopharmacol. (1987), 91, 352-355; Cao B. J. & Peng N. A., Eur. J. Pharmacol. (1993), 237, 177-181).
Hyperactivity was induced in male Sprague Dawley rats weighing 210-290 g (n 13 or 15 per group) by a mixture of dexamphetamine-chlordiazepoxide as described by Vale A. L. (Vale A. L. & Ratcliffe F., Psychopharmacol. (1987), 91, 352-355). […]
Each rat was placed in the center of the Y-maze (with each arm 40 cm long and 15 cm wide with 35 cm walls) constructed in gray plexiglas. The number of visits into the arms was recorded over a 5 minutes period as an index of activity.
The results were expressed as median with the first and third quartile. […]

sound-sensitive mice = assay: Rotarod test in sound-sensitive mice

| Compound | Number of arms visited ([1]; DEX-CDP mixture + levetiracetam 17 mg/kg i.p.) | Number of arms visited ([1]; DEX-CDP mixture + levetiracetam 54 mg/kg i.p.) | Effect on hyperactivity induced by DEX-CDP (in words) [1] | Effect on hyperactivity induced by DEX-CDP (in words) ([1]; listed as levetiracetam) | Number of arms visited ([1]; levetiracetam 17 mg/kg i.p. alone, no mixture) | Number of arms visited ([1]; levetiracetam 54 mg/kg i.p. alone, no mixture) | Effect of the compound per se on activity of non-hyperactive control (in words) [1] | Number of arms visited ([2]; levetiracetam 17 mg/kg i.p. + DEX-CDP mixture) | ED50 (TD50), impairment of rotarod performance (sound-sensitive mice; compound alone, i.p., sound-sensitive mice) [mg/kg] | animals showing an impairment of the rotarod performance (sound-sensitive mice; levetiracetam 5.5 mg/kg i.p. alone, inferred from dose-response relation) [%] | Number of arms visited ([1]; DEX-CDP mixture + sodium valproate 50 mg/kg i.p.) | Number of arms visited ([1]; DEX-CDP mixture + sodium valproate 100 mg/kg i.p.) | Number of arms visited ([1]; DEX-CDP mixture + sodium valproate 200 mg/kg i.p.) | Number of arms visited ([1]; sodium valproate 50 mg/kg i.p. alone, no mixture) | Number of arms visited ([1]; sodium valproate 100 mg/kg i.p. alone, no mixture) | Number of arms visited ([1]; sodium valproate 200 mg/kg i.p. alone, no mixture) | Number of arms visited ([2]; valproate 150 mg/kg i.p. + DEX-CDP mixture) | Impairment in the performance within the rotarod test (sound-sensitive mice; valproate 122 mg/kg + saline (treatment protecting 50% of the mice)) [%] |
| --- | --- | --- | --- | --- | --- | --- | --- | --- | --- | --- | --- | --- | --- | --- | --- | --- | --- | --- |
| CC[C@@H](C(N)=O)N1CCCC1=O [Levetiracetam, (S)-(−)α-ethyl-2-oxo-1-pyrrolidineacetamide] | 36 | 26 | significantly counteracted the hyperactivity induced by DEX-CDP at a dose of 54 mg/kg | normalization to the activity level of the non-hyperactive control rats | 31 | 28 | only a slight hyperactivity at a dose of 17 mg/kg | 46 (41-49) | 360.7 | 4 | – | – | – | – | – | – | – | – |
| CCCC(CCC)C(=O)[O-].[Na+] [Valproate, sodium valproate] | – | – | significantly counteracted hyperactivity at a dose of 200 mg/kg | – | – | – | strong dose dependent hyperactivity | – | – | – | 38 | 39 | 20 | 28 | 34 | 40 | 41 (18-49) | 30 |
